The record followed here is ChEMBL document CHEMBL4425156, “The evolution of P2X7 antagonists with a focus on CNS indications” (Bioorg Med Chem Lett, 2016).

For series [1], the target named is T1, P2X purinoceptor 7 (Homo sapiens, UniProt Q99572).
T1 sequence (Q99572 whole entry): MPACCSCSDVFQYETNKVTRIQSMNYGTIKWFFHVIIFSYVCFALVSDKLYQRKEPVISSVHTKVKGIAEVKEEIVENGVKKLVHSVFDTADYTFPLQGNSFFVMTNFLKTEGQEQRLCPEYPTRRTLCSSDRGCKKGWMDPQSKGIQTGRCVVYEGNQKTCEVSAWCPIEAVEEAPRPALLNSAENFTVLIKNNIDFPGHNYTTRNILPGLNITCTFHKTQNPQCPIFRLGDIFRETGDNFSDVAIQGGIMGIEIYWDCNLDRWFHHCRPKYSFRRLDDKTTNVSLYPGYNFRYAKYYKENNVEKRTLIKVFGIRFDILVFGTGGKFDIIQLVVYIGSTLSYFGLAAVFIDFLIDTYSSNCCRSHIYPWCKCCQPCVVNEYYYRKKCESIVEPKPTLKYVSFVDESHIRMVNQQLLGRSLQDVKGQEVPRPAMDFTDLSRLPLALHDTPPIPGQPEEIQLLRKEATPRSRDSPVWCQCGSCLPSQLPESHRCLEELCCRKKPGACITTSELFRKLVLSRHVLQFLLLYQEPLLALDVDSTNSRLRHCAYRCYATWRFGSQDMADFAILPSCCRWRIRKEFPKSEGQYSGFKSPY
The series can be described thus: Antagonist activity at human recombinant P2X7 receptor expressed in 1321N1 cells assessed as inhibition of BzATP-induced calcium mobilization incubated for 30 mins measured after 180 seconds by calcium-4 dye based FLIPR assay. In kind it is cell-based.

Series [2] can be described thus: Fraction unbound in human plasma. In kind it is ADME, cell-free.
Series [3] can be described thus: Fraction unbound in rat plasma. In kind it is ADME, cell-free.
For series [4], the target named is T2, P2X purinoceptor 7 (Rattus norvegicus, UniProt Q64663).
T2 sequence (Q64663 whole entry): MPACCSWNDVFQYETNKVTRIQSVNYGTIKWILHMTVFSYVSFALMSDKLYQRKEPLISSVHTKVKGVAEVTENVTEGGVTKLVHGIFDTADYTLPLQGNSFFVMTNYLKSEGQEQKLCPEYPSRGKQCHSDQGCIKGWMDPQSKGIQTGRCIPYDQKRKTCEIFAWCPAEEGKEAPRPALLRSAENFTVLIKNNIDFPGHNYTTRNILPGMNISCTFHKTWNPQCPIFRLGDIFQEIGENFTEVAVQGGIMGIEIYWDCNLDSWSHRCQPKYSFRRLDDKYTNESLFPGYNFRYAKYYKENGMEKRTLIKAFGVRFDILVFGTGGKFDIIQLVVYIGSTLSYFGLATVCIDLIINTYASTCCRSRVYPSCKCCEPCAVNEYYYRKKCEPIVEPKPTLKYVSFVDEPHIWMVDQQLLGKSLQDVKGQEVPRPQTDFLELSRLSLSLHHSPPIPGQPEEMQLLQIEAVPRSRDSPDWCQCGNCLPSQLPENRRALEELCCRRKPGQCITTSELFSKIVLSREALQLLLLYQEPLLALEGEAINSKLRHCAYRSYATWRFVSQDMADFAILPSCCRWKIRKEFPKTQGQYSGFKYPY
The series can be described thus: Antagonist activity at rat P2X7 receptor expressed in 1321N1 cells assessed as inhibition of BzATP-induced calcium mobilization incubated for 30 mins measured after 180 seconds by calcium-4 dye based FLIPR assay. The format is cell-based.

A short description of series [5]: Oral bioavailability in dog at 2.5 mg/kg. The following applies: in vivo. In kind it is ADME, organism-based, Canis lupus familiaris.
Series [6] can be described thus: Cmax in dog at 2.5 mg/kg, po. In kind it is ADME, organism-based, Canis lupus familiaris. Details: dose 2.5 mg/kg, route oral. As to conditions: in vivo.
Series [7] deals with Rattus norvegicus. Put plainly: Ex vivo inhibition of P2X7 in po dosed rat measured after 1 to 2 hrs by ARG assay. In kind it is functional, organism-based.
Series [8] addresses Cytochrome P450 3A4 (Homo sapiens, UniProt P08684). The series can be described thus: Inhibition of CYP3A4 (unknown origin). In kind it is ADME.
The target in series [9] is T1, P2X purinoceptor 7. The series can be described thus: Antagonist activity at human P2X7 receptor expressed in HEK293 cells assessed as inhibition of BzATP-induced calcium mobilization monitored for 5 mins followed by stimulation with BzATP measured after 3 mins by Fluo-8 NW dye based tetra FLIPR assay. In kind it is cell-based. On the technique in general: Calcium assays in cells follow changes in intracellular calcium, usually with a dye or a luminescent sensor.

A short description of series [10]: Efflux ratio of apparent permeability from basolateral to apical over apical to basolateral side in human Caco2 cells at 10 uM after 40 to 60 mins by LC-MS/MS analysis. In kind it is ADME, cell-based. As to conditions: Caco-2.
The nature of series [11]: Oral bioavailability in rat at 10 mg/kg. The following applies: in vivo. In kind it is ADME, organism-based.
Series [12] relates to Rattus norvegicus. The series can be described thus: Ex vivo receptor occupancy at P2X7 receptor in rat at 10 mg/kg, po. In kind it is functional.
Series [13] can be described thus: Ratio of drug level in brain to plasma in rat at 10 mg/kg, po. The format is ADME, organism-based. As to conditions: read-out: BPR.
For series [14], the target named is T1, P2X purinoceptor 7. Put plainly: Antagonist activity at human recombinant P2X7 receptor expressed in HEK293 cells assessed as inhibition of ATP-induced calcium mobilization incubated for 90 mins in presence of ATP by YO-PRO-1 dye based tetra FLIPR assay. The format is cell-based.
Series [15] has as its target T1, P2X purinoceptor 7. Put plainly: Antagonist activity at human P2X7 receptor expressed in HEK293 cells assessed as inhibition of BzATP-induced calcium mobilization incubated for 30 mins by Fluo-4 NW dye based tetra FLIPR assay. The format is cell-based.
In series [16] the target is T1, P2X purinoceptor 7. Put plainly: Antagonist activity at human P2X7 receptor expressed in HEK293 cells assessed as inhibition of BzATP-induced pore formation incubated for 20 mins followed by stimulation with BzATP for 30 mins by YO-PRO dye based fluorescence plate reader method. The format is cell-based.
In series [17] the target is T1, P2X purinoceptor 7. The series can be described thus: Antagonist activity at human P2X7 receptor expressed in THP1 cells assessed as inhibition of BzATP-induced IL-1beta release preincubated for 20 mins followed by stimulation with BzATP for 30 mins by sandwich ELISA. In kind it is cell-based. In general terms: An ELISA detects its analyte on a solid surface through an enzyme-linked reagent.

Sequence of Cytochrome P450 3A4 (P08684 whole entry): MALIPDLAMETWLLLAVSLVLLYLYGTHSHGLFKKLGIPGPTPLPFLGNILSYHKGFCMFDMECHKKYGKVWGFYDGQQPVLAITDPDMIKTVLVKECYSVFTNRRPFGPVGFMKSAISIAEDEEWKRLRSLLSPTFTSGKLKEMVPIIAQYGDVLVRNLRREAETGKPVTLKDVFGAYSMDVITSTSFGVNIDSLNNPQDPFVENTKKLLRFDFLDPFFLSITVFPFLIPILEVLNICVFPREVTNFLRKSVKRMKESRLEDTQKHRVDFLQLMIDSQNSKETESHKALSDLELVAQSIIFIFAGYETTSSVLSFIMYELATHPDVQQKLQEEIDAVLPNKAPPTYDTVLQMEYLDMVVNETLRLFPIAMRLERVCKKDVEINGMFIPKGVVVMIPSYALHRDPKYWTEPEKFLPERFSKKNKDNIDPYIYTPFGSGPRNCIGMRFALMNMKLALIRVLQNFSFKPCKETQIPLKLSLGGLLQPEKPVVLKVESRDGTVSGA

Broadly, the IC50 is the midpoint of a concentration-inhibition curve. Usually fraction unbound stands for the share of the substance not bound to proteins or other matrix. A lower fraction unbound goes with extensive binding. Regarding `Cc1nc2c(c(-c3ccccc3)n1)CCN(C(=O)c1cccc(C(F)(F)F)c1Cl)C2`, the IC50 in series [1] is 240 nM. The molecule further gave a fraction unbound in series [2] of 0.032.
The molecule `Cc1nc2c(c(-c3ccn[nH]3)n1)CCN(C(=O)c1cccc(C(F)(F)F)c1Cl)C2` gave a fraction unbound in series [3] of 0.074. Further, the values for the IC50 in series [1] and in series [4] were 8.5 nM and 1140 nM, respectively.
One may read the bioavailability as the share of a dose that reaches the circulation, judged against a reference dose that is usually intravenous. Lower therefore signals poor availability. A word on the Cmax: it is the highest concentration seen after dosing. The EC50 is the concentration giving half of the maximal effect. A high value points to a less potent agent. `Cc1nc2c(c(-c3ccn[nH]3)n1)C[C@@H](C)N(C(=O)c1cccc(C(F)(F)F)c1Cl)C2`: the bioavailability in series [5] worked out at 35%. The molecule further came in with a Cmax in series [6] of 571 nM. The molecule further yielded an EC50 in [7] of 8 nM. For the same molecule, inhibition in series [8] was half-maximal at 3300 nM (IC50).
Take `Cc1nc2c(c(-c3ccn[nH]3)n1)C[C@@H](C)N(C(=O)c1ccc(Cl)cc1F)C2`: the IC50 is 19 nM in series [1] and above 10000 nM in [8]. For the same molecule, in [7], a half-maximal response (EC50) required 100 nM.
With `O=C(NCC(CC1(C(F)F)CC1)c1ccc(C2CC2)nc1)c1cccc(Cl)c1Cl` (stereo not drawn), the IC50 in series [9] amounted to 0.79 nM.
One may read the efflux ratio as the permeability from basolateral to apical divided by that in the opposite direction, in the common usage. For the molecule `O=C(c1cccc(C(F)(F)F)c1Cl)N1CCn2c(nnc2C(F)(F)F)[C@H]1c1ccccc1`, the efflux ratio at 10 µM in series [10] is 0.75. This molecule showed a bioavailability in series [11] of 78%. The molecule further gave an Occ in series [12] above 80%. Further, the IC50 in series [1] is 8.7 nM; in series [4], 42 nM. The Kp in series [13] was found to be 0.5.
For the molecule `Cc1nnc2n1CCN(C(=O)c1cccc(C(F)(F)F)c1Cl)[C@@H]2c1ccccc1`, the efflux ratio at 10 µM in [10] came out at 5.1. In addition, the IC50 in series [1] worked out at 2.7 nM; in series [4] it was 27 nM.
Taken in the same sequence, the figures for `CCCCc1nnc2n1CCN(C(=O)c1cccc(C(F)(F)F)c1Cl)[C@@H]2c1ccccc1` were 1.22, 8.5 nM and 20 nM.
Consider `O=C(NCC1(c2ccc(Cl)nc2)CCCCC1)c1c(Cl)ccc2[nH]ccc12`, for which the IC50 in [14] was 3.2 nM.
Consider `O=C(c1cccc(C(F)(F)F)c1Cl)N1CCn2cnnc2[C@H]1c1ccccc1`, for which the efflux ratio at 10 µM in series [10] came out at 4.5. The IC50 in [1] was found to be 4.5 nM; in [4], 64 nM.
As to `Cc1ncc(C(CNC(=O)c2cc(-c3ncc(F)cn3)ccc2Cl)N2CCCC(F)(F)C2)s1` (stereo not drawn), the IC50 in [15] came out at 22 nM.
In the case of `C[C@H]1CC[C@@](O)(CNC(=O)c2cc(C3CCOC3)n3cccc(Cl)c23)CC1` (stereo partly drawn), the IC50 in series [16] and in series [17] was below 10 nM each time.
On to `CCc1nnc2n1CCN(C(=O)c1cccc(C(F)(F)F)c1Cl)[C@@H]2c1ccccc1`, for which the efflux ratio at 10 µM in series [10] stood at 3.24. The IC50 in series [1] is 2.4 nM.
In the case of `O=C(NCC(c1cnc(C(F)(F)F)nc1)N1CCOCC1)c1c(Cl)ccc2[nH]ccc12` (stereo not drawn), the IC50 in [14] is 3.9 nM.
In the case of `CN(C)C(=O)CCNc1ccc2c(C(=O)NCC3CCC(F)(F)CC3)c(Cl)ccc2n1`, the concentration for half-maximal inhibition (IC50) in series [16] and in series [17] was below 10 nM in each case.
Consider `O=C(c1cccc(C(F)(F)F)c1Cl)N1CCn2c(C3CC3)nnc2[C@H]1c1ccccc1`, for which, in series [10], the efflux ratio at 10 µM was 3.33. The IC50 in series [1] is 6.9 nM; in [4], 17 nM.
On to `CC(C)(C)c1nnc2n1CCN(C(=O)c1cccc(C(F)(F)F)c1Cl)[C@@H]2c1ccccc1`, for which the efflux ratio at 10 µM in [10] worked out at 2. For the same molecule, in [1], the IC50 amounted to 11 nM.
Turning to `O=C(NCC1(c2ccc(Cl)nc2)CCCCC1)C1CCCc2[nH]ccc21` (stereo not drawn), in series [14], the IC50 came to 3.4 nM.
